Results reported in the supplement of paper PMC9663587.

Key:
MCF7 = assay: GRmax, 72 h; higher = less effect;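 note: breast cell lines in 384-well plates, nine doses across a 10^4 range, Dye Drop imaging of viable cells vs DMSO and time-zero plates, GR 0 means no net growth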
MDAMB415 = assay: GRmax, 72 h; higher = less effect;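 note: breast cell lines in 384-well plates, nine doses across a 10^4 range, Dye Drop imaging of viable cells vs DMSO and time-zero plates, GR 0 means no net growth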
HCC1187 [1] = assay: GRmax, 72 h; higher = less effect;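 note: breast cell lines in 384-well plates, nine doses across a 10^4 range, Dye Drop imaging of viable cells vs DMSO and time-zero plates, GR 0 means no net growth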
CAL51 = assay: GRmax, 72 h; higher = less effect;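 note: breast cell lines in 384-well plates, nine doses across a 10^4 range, Dye Drop imaging of viable cells vs DMSO and time-zero plates, GR 0 means no net growth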
HCC1419 = assay: GRmax, 72 h; higher = less effect
HCC1143 = assay: GRmax, 72 h; higher = less effect
MGH312 = assay: GRmax, 72 h; higher = less effect
BT474 = assay: GRmax, 72 h; higher = less effect
HCC1806 = assay: GRmax, 72 h; higher = less effect
HCC1187 [2] = assay: area over the GR curve, 72 h; higher = more effect;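 note: Dye Drop or Deep Dye Drop imaging of viable cells in 384-well plates (Hoechst nuclei, LIVE/DEAD dye), nine half-log doses, GR normalized to DMSO controls and time-zero plates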
SUM185PE = assay: area over the GR curve, 72 h; higher = more effect;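 note: Dye Drop or Deep Dye Drop imaging of viable cells in 384-well plates (Hoechst nuclei, LIVE/DEAD dye), nine half-log doses, GR normalized to DMSO controls and time-zero plates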
HCC1954 = assay: area over the GR curve, 72 h; higher = more effect;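 note: Dye Drop or Deep Dye Drop imaging of viable cells in 384-well plates (Hoechst nuclei, LIVE/DEAD dye), nine half-log doses, GR normalized to DMSO controls and time-zero plates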
HS578T = assay: area over the GR curve, 72 h; higher = more effect;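 note: Dye Drop or Deep Dye Drop imaging of viable cells in 384-well plates (Hoechst nuclei, LIVE/DEAD dye), nine half-log doses, GR normalized to DMSO controls and time-zero plates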

C[C@@H]1COCCN1c1cc(C2([S@](C)(=N)=O)CC2)nc(-c2cc[nH]c3nccc2-3)n1 [AZD6738] (max 10 µM)
GRmax, 72 h (MCF7): 0.0472 GR | GRmax, 72 h (MDAMB415): 0.522 GR | GRmax, 72 h (HCC1187 [1]): -0.332 GR | GRmax, 72 h (CAL51): 0.0335 GR | GRmax, 72 h (HCC1419): 0.367 GR | GRmax, 72 h (HCC1143): -0.0627 GR | GRmax, 72 h (MGH312): 0.348 GR | GRmax, 72 h (BT474): 0.267 GR | GRmax, 72 h (HCC1806): -0.326 GR | area over the GR curve (HCC1187 [2]): 0.249 GR | area over the GR curve (SUM185PE): 0.0637 GR | area over the GR curve (HCC1954): -0.0136 GR | area over the GR curve (HS578T): 0.0772 GR

NC(=O)Nc1cc(-c2cccc(F)c2)sc1C(=O)N[C@H]1CCCNC1 [AZD7762] (max 10 µM)
GRmax, 72 h (MCF7): -0.186 GR | GRmax, 72 h (MDAMB415): -0.481 GR | GRmax, 72 h (HCC1187 [1]): -0.691 GR | GRmax, 72 h (CAL51): -0.519 GR | GRmax, 72 h (HCC1419): -0.0826 GR | GRmax, 72 h (HCC1143): -0.369 GR | GRmax, 72 h (MGH312): -0.515 GR | GRmax, 72 h (BT474): 0.0014 GR | GRmax, 72 h (HCC1806): -0.482 GR | area over the GR curve (HCC1187 [2]): 0.776 GR | area over the GR curve (SUM185PE): 0.447 GR | area over the GR curve (HCC1954): 0.515 GR | area over the GR curve (HS578T): 0.863 GR

Cc1nc(NC(=O)N2CCC[C@H]2C(N)=O)sc1-c1ccnc(C(C)(C)C(F)(F)F)c1 [Alpelisib/BYL719] (max 10 µM)
GRmax, 72 h (MCF7): 0.0207 GR | GRmax, 72 h (MDAMB415): 0.613 GR | GRmax, 72 h (HCC1187 [1]): 0.608 GR | GRmax, 72 h (CAL51): 0.344 GR | GRmax, 72 h (HCC1419): -0.002 GR | GRmax, 72 h (HCC1143): 0.48 GR | GRmax, 72 h (MGH312): 0.104 GR | GRmax, 72 h (BT474): -0.809 GR | GRmax, 72 h (HCC1806): 0.726 GR | area over the GR curve (HCC1187 [2]): 0.0302 GR | area over the GR curve (SUM185PE): 0.36 GR | area over the GR curve (HCC1954): 0.264 GR | area over the GR curve (HS578T): 0.0905 GR

CN(C)C/C=C/C(=O)Nc1ccc(O[C@@H]2CCC[C@@H](Nc3ncc(Cl)c(-c4c[nH]c5ccccc45)n3)C2)cc1 [BSJ-01-175] (max 10 µM)
GRmax, 72 h (MCF7): -0.627 GR | GRmax, 72 h (MDAMB415): -0.491 GR | GRmax, 72 h (HCC1187 [1]): -0.827 GR | GRmax, 72 h (CAL51): -0.368 GR | GRmax, 72 h (HCC1419): -0.601 GR | GRmax, 72 h (HCC1143): -0.449 GR | GRmax, 72 h (MGH312): -0.985 GR | GRmax, 72 h (BT474): -0.962 GR | GRmax, 72 h (HCC1806): -0.592 GR | area over the GR curve (HCC1187 [2]): 1.08 GR | area over the GR curve (SUM185PE): 0.597 GR | area over the GR curve (HCC1954): 0.66 GR | area over the GR curve (HS578T): 1.07 GR

CC(=O)c1c(C)c2cnc(Nc3ccc(N4CCN(CCOCCOCCOCCNC(=O)COc5cccc6c5C(=O)N(C5CCC(=O)NC5=O)C6=O)CC4)cn3)nc2n(C2CCCC2)c1=O (stereo not drawn) [BSJ-03-123] (max 10 µM)
GRmax, 72 h (MCF7): -0.323 GR | GRmax, 72 h (MDAMB415): 0.149 GR | GRmax, 72 h (HCC1187 [1]): -0.518 GR | GRmax, 72 h (CAL51): 0.146 GR | GRmax, 72 h (HCC1419): 0.165 GR | GRmax, 72 h (HCC1143): -0.0159 GR | GRmax, 72 h (MGH312): -0.894 GR | GRmax, 72 h (BT474): -0.0209 GR | GRmax, 72 h (HCC1806): -0.0588 GR | area over the GR curve (HCC1187 [2]): -0.0405 GR | area over the GR curve (SUM185PE): 0.156 GR | area over the GR curve (HCC1954): 0.33 GR | area over the GR curve (HS578T): 0.298 GR

CC(C)Nc1cc(-c2c[nH]c(C(=O)N[C@H](CO)c3cccc(Cl)c3)c2)c(Cl)cn1 [BVD523] (max 10 µM)
GRmax, 72 h (MCF7): 0.334 GR | GRmax, 72 h (MDAMB415): 0.533 GR | GRmax, 72 h (HCC1187 [1]): 0.649 GR | GRmax, 72 h (CAL51): 0.759 GR | GRmax, 72 h (HCC1419): 0.637 GR | GRmax, 72 h (HCC1143): 0.0829 GR | GRmax, 72 h (MGH312): 0.914 GR | GRmax, 72 h (BT474): 0.977 GR | GRmax, 72 h (HCC1806): 0.76 GR | area over the GR curve (HCC1187 [2]): -0.297 GR | area over the GR curve (SUM185PE): -0.0633 GR | area over the GR curve (HCC1954): 0.242 GR | area over the GR curve (HS578T): 0.316 GR

Cc1c(N)nc([C@H](CC(N)=O)NC[C@H](N)C(N)=O)nc1C(=O)N[C@H](C(=O)N[C@H](C)[C@@H](O)[C@H](C)C(=O)N[C@H](C(=O)NCCc1nc(-c2nc(C(=O)NCCC[S+](C)C)cs2)cs1)[C@@H](C)O)[C@@H](OC1OC(CO)C(O)C(O)C1OC1OC(CO)C(O)C(OC(N)=O)C1O)c1cnc[nH]1 (stereo partly drawn) [Bleomycin] (max 10 µM)
GRmax, 72 h (MCF7; main component drawn): -0.0459 GR | GRmax, 72 h (CAL51; main component drawn): -0.134 GR | GRmax, 72 h (HCC1419; main component drawn): 0.354 GR | GRmax, 72 h (HCC1143; main component drawn): -0.208 GR | GRmax, 72 h (HCC1806; main component drawn): 0.481 GR | area over the GR curve (HCC1954; main component drawn): 0.617 GR | area over the GR curve (HS578T; main component drawn): 0.446 GR

Nc1cc(C(F)(F)F)c(-c2cc(N3CCOCC3)nc(N3CCOCC3)n2)cn1 [Buparlisib/NVP-BKM120] (max 10 µM)
GRmax, 72 h (MCF7): -0.269 GR | GRmax, 72 h (MDAMB415): -0.515 GR | GRmax, 72 h (HCC1187 [1]): -0.608 GR | GRmax, 72 h (CAL51): -0.388 GR | GRmax, 72 h (HCC1419): -0.496 GR | GRmax, 72 h (HCC1143): -0.436 GR | GRmax, 72 h (MGH312): -0.859 GR | GRmax, 72 h (BT474): -0.851 GR | GRmax, 72 h (HCC1806): -0.269 GR | area over the GR curve (HCC1187 [2]): 0.425 GR | area over the GR curve (SUM185PE): 0.299 GR | area over the GR curve (HCC1954): 0.39 GR | area over the GR curve (HS578T): 0.376 GR
